These results are taken from PubChem BioAssay (NCI).

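Interpolation was linear, between the two tested concentrations surrounding the appropriate level; five concentrations were tested over 48 hours in 96-well plates. GI50 is the concentration that inhibits growth by half. Definition used: TGI = concentration required for complete inhibition of growth.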 Where only a bound is given, the exact number is not on record here.

Common to all, as to assay: inhibition of tumour cell growth, NCI panel, 48 h
Experiment [1] relates to 786-0 renal.
Experiment [2] relates to HT29 colon.
In experiment [3] the test system is TK-10 renal.
The test system of experiment [4] is ACHN renal.
The test system of experiment [5] is NCI-H23 lung.
Experiment [6] relates to SW-620 colon.
In experiment [7] the test system is RXF 393 renal.
In experiment [8] the test system is SF-295 CNS.
In experiment [9] the test system is HOP-92 NSCLC.
The subject of experiment [10] is HCC-2998 colon.
The subject of experiment [11] is SF-268 CNS.
Experiment [12] has as its system UACC-62 melanoma.
Experiment [13] has as its system UO-31 renal.

Regarding `CN(C)c1nc(=NCc2ccccn2)ss1`, the TGI in [1] is greater than 5.57 µM; in experiment [2], greater than 10 µM; in experiment [3] it was greater than 10 µM; in experiment [4], greater than 10 µM; in experiment [5], greater than 10 µM; in experiment [6], greater than 10 µM. The TGI in experiment [7], in experiment [8], in experiment [9], in experiment [10], in experiment [11] and in experiment [12] was greater than 10 µM in each case. The compound also came in with a TGI in experiment [13] greater than 10 µM.
For the compound `CCOC(=O)C(NC(=O)c1ccc(N=NN(C)C)cc1)C(C)C` (stereo unspecified), the TGI in [1], in experiment [2], in [3], in [4], in experiment [5] and in [6] was greater than 100 µM each time. The TGI in experiment [8], in experiment [10], in [11], in experiment [12] and in experiment [13] was greater than 100 µM throughout.
For the compound `NC(CCSCC(F)F)C(=O)O` (stereo unspecified), the TGI in [1], in [2], in experiment [3], in [4], in [5] and in [6] was greater than 100 µM each time. Besides, the TGI in experiment [7], in experiment [8], in experiment [9], in experiment [10], in experiment [11] and in experiment [12] was greater than 100 µM in each case. Also, in [13], the TGI is greater than 100 µM.
Turning to `CC1(C)OC(=O)C=C([O-])O1.CC1(C)OC(=O)C=C([O-])O1.O=c1c(O)c(-c2ccc([O-])cc2[O-])oc2cc(O)cc(O)c12.[Ti+4]`, the TGI is greater than 100 µM in [1]; greater than 100 µM in [2]; greater than 100 µM in [3]; greater than 100 µM in [4]; 73.7 µM in experiment [5]; greater than 100 µM in experiment [6]. Also, the TGI in experiment [7] is 93.3 µM; in [8], greater than 100 µM; in experiment [11] it was 95.5 µM; in experiment [12] it was greater than 100 µM; in experiment [13], 90.5 µM. The GI50 in experiment [7] is 36.7 µM; in experiment [12], 33.1 µM.
As for `COc1ccc(/C=N/Nc2nc3ccccc3c(=O)n2-c2ccccc2)c(OCc2ccccc2)c1`, the TGI in [1], in experiment [2], in experiment [3], in experiment [4], in experiment [5] and in experiment [6] was greater than 100 µM each time. Moreover, the TGI in [7], in experiment [8], in [9], in [10], in [11] and in experiment [12] was greater than 100 µM throughout. Also, the TGI in [13] was greater than 100 µM.
For `Clc1cccc(C2ON=C(c3ccccc3)N2C23CC4CC(CC(C4)C2)C3)c1Cl` (stereo unspecified), the TGI in [1], in experiment [2], in experiment [3], in experiment [4], in experiment [5] and in [6] was greater than 10 µM in each case. Besides, the TGI in [7], in experiment [8], in experiment [9], in experiment [10], in [11] and in [12] was greater than 10 µM throughout. Besides, in experiment [13], the TGI is greater than 10 µM.
For `O=c1cc(-c2ccccc2F)[nH]c2cc3c(cc12)OCO3`, the TGI is 28.8 µM in experiment [1]; 0.643 µM in experiment [2]; 98.2 µM in [3]; greater than 100 µM in experiment [4]; 6.8 µM in experiment [5]; greater than 100 µM in experiment [6]. In addition, the TGI was greater than 100 µM in [7]; 9.84 µM in [8]; greater than 100 µM in experiment [9]; 0.399 µM in experiment [10]; greater than 100 µM in [11]; greater than 100 µM in [12]. This compound also yielded a TGI in experiment [13] greater than 100 µM.
With `C(=N/Nc1ccc(-c2nc3ccccc3[nH]2)cc1)/c1c(-c2ccccc2)[nH]c2ccccc12`, the TGI in [1] was greater than 100 µM; in experiment [3] it was greater than 100 µM; in experiment [4], greater than 100 µM; in experiment [5], greater than 100 µM; in [6], 75 µM; in [7], greater than 100 µM. Further, the TGI was 12.7 µM in [8]; greater than 100 µM in experiment [9]; 1.22 µM in experiment [10]; greater than 100 µM in experiment [11]; greater than 100 µM in [13].
On to `Cc1cc(C)nc(NS(=O)(=O)c2ccc(Nc3c4ccccc4nc4c(C(=O)N5CCN(CCOS(C)(=O)=O)CC5)ccc(Cl)c34)cc2)n1`, for which the TGI in experiment [1], in experiment [2], in experiment [3], in [4], in experiment [5] and in experiment [7] was greater than 100 µM each time. The TGI in [8], in experiment [9], in experiment [10], in experiment [11], in [12] and in experiment [13] was greater than 100 µM in each case.
Regarding `N#CC(C#N)=Cc1cccc(Oc2ccccc2)c1`, the TGI is 34.2 µM in [1]; 49.9 µM in experiment [2]; greater than 70.6 µM in [3]; 34.1 µM in [4]; 22 µM in experiment [5]; 58.7 µM in experiment [6]. Further, the TGI in experiment [7] was 33.4 µM; in experiment [8], 45.5 µM; in [10] it was greater than 62.8 µM; in experiment [11] it was 40.6 µM; in experiment [12], 53.3 µM; in [13] it was 30.8 µM.
With `COC(=O)/C(=N\NC(=S)NN)C(C(=O)C(=O)Nc1ccccc1C(N)=O)c1nc2ccccc2[nH]c1=O` (stereo unspecified), the TGI in [1], in experiment [3], in [4], in experiment [5], in experiment [6] and in [7] was greater than 100 µM throughout. For the same compound, the TGI in [8], in [9], in experiment [10], in experiment [11], in [12] and in [13] was greater than 100 µM in each case.
